According to patent publication US20100278733A1, “COMPOSITION FOR DIAGNOSIS OF AMYLOID-RELATED DISEASE” (priority 2007, published 2010):

Key:
[1] = molecular target: T1, Aβ(1-42) aggregate (Homo sapiens, UniProt P05067); assay: Binding inhibition experiment using Aβ(1-42) aggregate, Ki values (Example 2); details: compound numbers of Example 2; for Ki: radioactive ligand [^125I]CL-NMe2, mean ± standard error of 3 experiments (compound 4: 6 experiments), read-out: Ki values calculated by inhibition experiment; for binding affinity for the Aβ(1-42) aggregate: in words, derivatives with two substituents on Ring A
T1 construct: Amyloid β protein (Human, 1-42) [TFA form] was purchased from Peptide Institute, Inc; purchased Peptide Institute, Inc
Experimental: As a radioactive iodine-125 (^125I), Iodine-125 (3.7 GBq/mL) manufactured by MP Biomedicals, Inc. was used. Reverse phase HPLC was performed at a flow rate of 1.0 mL/min using a Cosmosil 5C18-AR-II column (4.6×150 mm) manufactured by Nacalai Tesque Inc. and ultrapure water:acetonitrile=3:7 as an elution solvent. ^1HNMR was measured using Varian Gemini 300 and tetramethylsilane as an internal standard substance. Mass spectrometry was performed using JEOL IMS-DX300. Preparative TLC was performed using 12 PLC plates 20×20-cm-Silica gel 60 F254, 2 mm manufactured by MERCK. Amyloid β protein (Human, 1-42) was purchased from Peptide Institute, Inc., and special grade reagents were used as other reagents.
Aβ(1-42) was dissolved in 10 mM phosphate buffer containing 1 mM EDTA (pH 7.4) at a concentration of 0.25 mg/mL, and the mixture was incubated at 37° C. for 42 h to prepare an Aβ(1-42) aggregate.
[…] of 10% EtOH solution, […] of a solution of [^125I]4-diethylamino-4′-iodochalcone ([^125I]CL-NMe2) in 10% ethanol, and […] of a sample solution at various concentrations (0 to 20 mM) were mixed, […] of an Aβ(1-42) aggregate solution was finally added, and the mixture was allowed to stand at room temperature for 3 h. Aβ(1-42) aggregate-bound compounds and nonbound compounds were separated with a Brandel M-24R cell harvester using a Whatman GF/B filter. Radioactivities remaining on the filter after filtration were measured with a γ-counter, and inhibition curves were created using Graph Pad Prism 4.0 to calculate inhibition constants (Ki values).

[2] = In-vivo radioactivity distribution experiment using normal mice (Example 2); details: normal mice, intravenous, Example 2 numbering
Experimental: Radioactive iodine labeling compounds were diluted with physiological saline containing 10% EtOH. To each of four or five 5-week-old male ddY mice (20 to 25 g) per group, […] of a labeled compound, [^125I]Compound 7, 10, 13, or 14 (0.2 to 0.4 mCi), was administered from the caudal vein. Animals were decapitated at 2, 10, 30, or 60 min, blood was collected, the major organs were isolated, and then weights and radioactivities thereof were measured.

[3] = In-vivo radioactivity distribution experiment in mice (Reference Example 1); details: intravenous, mean (standard deviation), Reference Example 1 numbering
Experimental: A radioactive iodine-labeled compound (Compound 7) was diluted with physiological saline containing 5 to 10% ethanol. Three to five 5-week-old male ddY mice (25 to 30 g) per group were decapitated at 2, 10, 30, or 60 min after intravenous administration of […] (0.5 to 1 μCi) of the labeled compound, blood was collected, organs were removed, and weights and radioactivities thereof were measured.

T1 sequence (P05067 672-713 limits assumed): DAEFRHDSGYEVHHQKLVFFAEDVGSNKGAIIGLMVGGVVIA

Nc1ccc(C=CC(=O)c2ccc(I)cc2)cc1 [CL-NH2, reference compound]
Ki [1]: 105 ± 12 nM

CNc1ccc(C=CC(=O)c2ccc(I)cc2)cc1 [CL-NHMe, reference compound]
Ki [1]: 6.3 ± 1.6 nM

CNc1ccc(C(=O)/C=C/c2ccc(I)cc2)cc1 [Compound 7 in Example 2, 4-iodo-4′-methylaminochalcone]
In-vivo radioactivity distribution: blood ([2]; 2 min): 1.76 (0.27) percent of the dose/g | In-vivo radioactivity distribution: brain ([2]; 2 min): 3.07 (0.57) percent of the dose/g | In-vivo radioactivity distribution: heart ([2]; 2 min): 5.00 (0.79) percent of the dose/g | In-vivo radioactivity distribution: intestine ([2]; 2 min): 2.52 (0.81) percent of the dose/g | In-vivo radioactivity distribution: kidney ([2]; 2 min): 6.20 (0.93) percent of the dose/g | In-vivo radioactivity distribution: liver ([2]; 2 min): 10.82 (2.61) percent of the dose/g | In-vivo radioactivity distribution: lung ([2]; 2 min): 11.10 (3.36) percent of the dose/g | In-vivo radioactivity distribution: pancreas ([2]; 2 min): 4.93 (1.01) percent of the dose/g | In-vivo radioactivity distribution: spleen ([2]; 2 min): 2.27 (0.48) percent of the dose/g | In-vivo radioactivity distribution: stomach ([2]; 2 min): 1.06 (0.67) percent of the dose | In-vivo radioactivity distribution: blood ([2]; 10 min): 1.43 (0.30) percent of the dose/g | In-vivo radioactivity distribution: brain ([2]; 10 min): 2.03 (0.41) percent of the dose/g | In-vivo radioactivity distribution: heart ([2]; 10 min): 1.98 (0.24) percent of the dose/g | In-vivo radioactivity distribution: intestine ([2]; 10 min): 7.78 (1.31) percent of the dose/g | In-vivo radioactivity distribution: kidney ([2]; 10 min): 4.56 (0.67) percent of the dose/g | In-vivo radioactivity distribution: liver ([2]; 10 min): 9.42 (1.92) percent of the dose/g | In-vivo radioactivity distribution: lung ([2]; 10 min): 4.94 (1.73) percent of the dose/g | In-vivo radioactivity distribution: pancreas ([2]; 10 min): 2.99 (1.70) percent of the dose/g | In-vivo radioactivity distribution: spleen ([2]; 10 min): 1.47 (0.27) percent of the dose/g | In-vivo radioactivity distribution: stomach ([2]; 10 min): 0.87 (0.38) percent of the dose | In-vivo radioactivity distribution: blood ([2]; 30 min): 1.15 (0.57) percent of the dose/g | In-vivo radioactivity distribution: brain ([2]; 30 min): 0.69 (0.09) percent of the dose/g | In-vivo radioactivity distribution: heart ([2]; 30 min): 0.98 (0.20) percent of the dose/g | In-vivo radioactivity distribution: intestine ([2]; 30 min): 17.52 (1.74) percent of the dose/g | In-vivo radioactivity distribution: kidney ([2]; 30 min): 3.92 (1.05) percent of the dose/g | In-vivo radioactivity distribution: liver ([2]; 30 min): 6.77 (1.21) percent of the dose/g | In-vivo radioactivity distribution: lung ([2]; 30 min): 2.22 (0.58) percent of the dose/g | In-vivo radioactivity distribution: pancreas ([2]; 30 min): 1.04 (0.35) percent of the dose/g | In-vivo radioactivity distribution: spleen ([2]; 30 min): 0.94 (0.48) percent of the dose/g | In-vivo radioactivity distribution: stomach ([2]; 30 min): 0.70(0.11) percent of the dose | In-vivo radioactivity distribution: blood ([2]; 60 min): 1.51 (0.26) percent of the dose/g | In-vivo radioactivity distribution: brain ([2]; 60 min): 0.40 (0.08) percent of the dose/g | In-vivo radioactivity distribution: heart ([2]; 60 min): 0.82 (0.14) percent of the dose/g | In-vivo radioactivity distribution: intestine ([2]; 60 min): 18.47 (2.31) percent of the dose/g | In-vivo radioactivity distribution: kidney ([2]; 60 min): 4.04 (1.10) percent of the dose/g | In-vivo radioactivity distribution: liver ([2]; 60 min): 6.01 (1.81) percent of the dose/g | In-vivo radioactivity distribution: lung ([2]; 60 min): 1.57 (0.23) percent of the dose/g | In-vivo radioactivity distribution: pancreas ([2]; 60 min): 0.78 (0.16) percent of the dose/g | In-vivo radioactivity distribution: spleen ([2]; 60 min): 0.71 (0.19) percent of the dose/g | In-vivo radioactivity distribution: stomach ([2]; 60 min): 1.14 (0.48) percent of the dose

COc1cc(/C=C/C(=O)c2cccc(I)c2)ccc1O [Compound 7 in Reference Example 1, (E)-3-(4-hydroxy-3-methoxyphenyl)-1-(3-iodophenyl)prop-2-en-1-one]
In-vivo distribution of radioactivity: Blood ([3]; 2 min): 4.90 (0.52) percents of the dose/g | In-vivo distribution of radioactivity: Brain ([3]; 2 min): 2.52 (0.20) percents of the dose/g | In-vivo distribution of radioactivity: Heart ([3]; 2 min): 5.58 (0.99) percents of the dose/g | In-vivo distribution of radioactivity: Intestines ([3]; 2 min): 2.50 (0.31) percents of the dose/g | In-vivo distribution of radioactivity: Kidneys ([3]; 2 min): 11.99 (3.60) percents of the dose/g | In-vivo distribution of radioactivity: Liver ([3]; 2 min): 15.71 (1.27) percents of the dose/g | In-vivo distribution of radioactivity: Spleen ([3]; 2 min): 2.57 (0.42) percents of the dose/g | In-vivo distribution of radioactivity: Blood ([3]; 10 min): 3.80 (0.91) percents of the dose/g | In-vivo distribution of radioactivity: Brain ([3]; 10 min): 1.28 (0.17) percents of the dose/g | In-vivo distribution of radioactivity: Heart ([3]; 10 min): 2.88 (1.02) percents of the dose/g | In-vivo distribution of radioactivity: Intestines ([3]; 10 min): 10.52 (1.82) percents of the dose/g | In-vivo distribution of radioactivity: Kidneys ([3]; 10 min): 9.16 (2.76) percents of the dose/g | In-vivo distribution of radioactivity: Liver ([3]; 10 min): 18.55 (2.68) percents of the dose/g | In-vivo distribution of radioactivity: Spleen ([3]; 10 min): 1.80 (0.30) percents of the dose/g | In-vivo distribution of radioactivity: Blood ([3]; 30 min): 1.84 (0.31) percents of the dose/g | In-vivo distribution of radioactivity: Brain ([3]; 30 min): 0.40 (0.11) percents of the dose/g | In-vivo distribution of radioactivity: Heart ([3]; 30 min): 1.44 (0.34) percents of the dose/g | In-vivo distribution of radioactivity: Intestines ([3]; 30 min): 20.60 (6.13) percents of the dose/g | In-vivo distribution of radioactivity: Kidneys ([3]; 30 min): 5.00 (2.27) percents of the dose/g | In-vivo distribution of radioactivity: Liver ([3]; 30 min): 7.67 (1.68) percents of the dose/g | In-vivo distribution of radioactivity: Spleen ([3]; 30 min): 1.03 (0.04) percents of the dose/g | In-vivo distribution of radioactivity: Blood ([3]; 60 min): 1.15 (0.44) percents of the dose/g | In-vivo distribution of radioactivity: Brain ([3]; 60 min): 0.35 (0.05) percents of the dose/g | In-vivo distribution of radioactivity: Heart ([3]; 60 min): 1.38 (0.34) percents of the dose/g | In-vivo distribution of radioactivity: Intestines ([3]; 60 min): 29.31 (3.26) percents of the dose/g | In-vivo distribution of radioactivity: Kidneys ([3]; 60 min): 4.31 (0.81) percents of the dose/g | In-vivo distribution of radioactivity: Liver ([3]; 60 min): 4.05 (0.61) percents of the dose/g | In-vivo distribution of radioactivity: Spleen ([3]; 60 min): 0.88 (0.15) percents of the dose/g

O=C(C=Cc1cccs1)c1ccc(I)cc1 [Compound 24 in Example 2, 1-(4-iodophenyl)-3-(2-thienyl)-prop-2-en-1-one]
Ki [1]: 102 ± 15.9 nM

O=C(C=Cc1nccs1)c1ccc(I)cc1 [Compound 27 in Example 2, 1-(4-iodophenyl)-3-(thiazol-2-yl)-prop-2-en-1-one]
Ki [1]: > 10000 nM

CN(C)c1ccc(C=CC(=O)c2ccc(I)cc2)o1 [Compound 31 in Example 2, 1-(4-iodophenyl)-3-(5-dimethylamino-2-furanyl)-prop-2-en-1-one]
Ki [1]: 1130 ± 344 nM

CN(C)c1ccc(C=CC(=O)c2ccc(Br)o2)cc1 [Compound 32 in Example 2, 1-(5-bromo-2-furanyl)-3-(4-dimethylaminophenyl)-prop-2-en-1-one]
Ki [1]: 126 ± 12.5 nM

CN(C)c1ccc(C=CC(=O)c2ccc(I)cc2)s1 [Compound 33 in Example 2, 3-(5-dimethylamino-2-thienyl)-1-(4-iodophenyl)-prop-2-en-1-one]
Ki [1]: 113 ± 10.1 nM

CN(C)c1ccc(C=CC(=O)c2ccc(Br)o2)o1 [Compound 34 in Example 2, 1-(5-bromo-2-furyl)-3-(5-dimethylamino-2-furyl)-prop-2-en-1-one]
Ki [1]: > 10000 nM

CN(C)c1ccc(C=CC(=O)c2ccc(Br)o2)s1 [Compound 35 in Example 2, 1-(5-bromo-2-furyl)-3-(5-dimethylamino-2-thienyl)-prop-2-en-1-one]
Ki [1]: 2650 ± 221 nM

CN(C)c1ccc(C=CC(=O)c2ccc(I)s2)o1 [Compound 36 in Example 2, 3-(5-dimethylamino-2-furyl)-1-(5-iodo-2-thienyl)-prop-2-en-1-one]
Ki [1]: 1610 ± 84.5 nM

CN(C)c1ccc(C=CC(=O)c2ccc(I)s2)s1 [Compound 37 in Example 2, 3-(S-dimethylamino-2-thienyl)-1-(5-iodo-2-thienyl)-prop-2-en-1-one]
Ki [1]: 137 ± 3.4 nM

Nc1ccc(/C=C/C(=O)c2ccc(I)cc2)c(N)c1 [Compound 39 in Example 2, 2,4-diamino-4′-iodochalcone]
binding affinity for the Aβ(1-42) aggregate [1]: no compound showed a high binding affinity

COc1cc(/C=C/C(=O)c2ccc(I)cc2)ccc1O [Compound 40 in Example 2, 4-hydroxy-4′-iodo-3-methoxychalcone]
binding affinity for the Aβ(1-42) aggregate [1]: no compound showed a high binding affinity | Ki [1]: 1160 ± 154 nM

COc1ccc(/C=C/C(=O)c2ccc(I)cc2)cc1O [Compound 41 in Example 2, 3-hydroxy-4′-iodo-4-methoxychalcone]
binding affinity for the Aβ(1-42) aggregate [1]: no compound showed a high binding affinity | Ki [1]: 157 ± 80.8 nM
